Experimental data from patent US20090306342A1, “BINDING OF MOLECULES” (BIO-LAYER PTY LIMITED, priority 2005, published 2009).
“Also recorded” adds a separate entry of the source.

What was measured:
Fc of an antibody = conditions: Protein A binding region; cited from earlier work
Human IgG = experiment: SPR IgG binding assay on gold (Example 4); conditions: IgG 10-100 ug/mL, polyacrylic acid on gold, FIG. 7
Protocol: Slides were then rinsed in Ethanol and incubated in a solution of 1% Polyacrylic acid. 2% w/v Polyacrylic acid was prepared by adding […] of Stock 10% w/v PAA solution (Poly(Acrylic Acid) MW 50K 10% w/v solution in DMF) to […] (N,N-Dimethylformamide (DMF) Labscan HPLC Grade—Dried over sieves and filtered). 100 mM solutions of NHS and DIC were prepared in dry DMF (N-Hydroxysuccinimide (NHS) (Aldrich cat: 130672), N,N′-Diisopropylcarbodiimide (DIC) (Sigma Aldrich cat: D125407)). 15 mL of 100 mM NHS and 15 mL of 100 mM DIC were added to 30 mL of 2% w/v of PAA solution and shaken on a RATEK platform mixer with speed setting 70 for 10 minutes. This gave a final 1.0% w/v solution of activated PAA. Each amino functionalized gold slide was placed in 10 mL of activated 1% wlv PAA solution and allowed to shake on a RATEK platform mixer with speed setting […] for 1 hour. The slides were then rinsed with dry DMF and using house nitrogen with a filter pipette tip in the end of the hose, the slides were blown dry using a concentrated flow over each slide. […]
The first concentration of IgG to be flowed through the cell and over the slide was 10 μg/mL. […] After the final concentration of 100 μg/mL IgG was analyzed, the signal was monitored by flowing 10 mM Phosphate Buffered Saline pH7.4 with 0.2% Tween20 over the slide. […]

IgG binding by SPR (Human IgG): poor or non-existent
SMILES: NCCNc1nc(NCCc2ccc(O)cc2)nc(Nc2ccccc2)n1 [APA, 2-(2-aminoethylamino)-4-anilino-6-tyramino-s-triazine]
affinity for the Fc of an antibody (Fc of an antibody): medium affinity; also recorded: weakly binds
